Test results: patent publication US7947741B2, “Use and administration of bacterial efflux pump inhibitors” (Mpex Pharmaceuticals, Inc., priority 2004, dated 2011)
Values after ≈ are worked out from the molar mass of the structure shown.

Legend:
[1] = tested on: P. aeruginosa PAM1723 (nalB, overexpressing MexAB-OprM); assay: microbe, parasite or virus in culture; type: cell-based, Pseudomonas aeruginosa
Procedure: Stock solutions were further diluted, according to the needs of a particular assay, in Mueller Hinton Broth (MHB). Stock solution was stored at −80° C.
The checkerboard assay was performed in microtiter plates. […] The result of these manipulations is that each well of the microtiter plate contains a unique combination of concentrations of the two agents. The assay was performed in MHB with a final bacterial inoculum of 5×10^5 CFU/ml (from an early-log phase culture). Microtiter plates were incubated during 20 h at 35° C. and were read using a microtiterplate reader (Molecular Devices) at 650 nm as well as visual observation using a microtiter plate reading mirror.
The test organisms used was PAM1020, which is a wild type strain of P. aeruginosa expressing the basal level of MexAB-OprM, as well as PAM1723, PAM1738, and PAM1753, overexpressing the MexAB-OprM, MexCD-OprJ, and MexEF-OprN pump, respectively.
Efflux pump inhibitory activity of several commercially available diamidine analogs was evaluated using the checkerboard assay of Example 1 against the strain of P. aeruginosa overexpressing the MexAB-OprM efflux pump.

[2] = tested on: P. aeruginosa PAM1626 (lacks all the three efflux pumps); assay: microbe, parasite or virus in culture; type: cell-based, Pseudomonas aeruginosa; conditions: for Levofloxacin MIC in the presence of inhibitor: PAM1626
[3] = tested on: P. aeruginosa PAM1020 (pump status none; target mutation none); assay: microbe, parasite or virus in culture; type: cell-based, Pseudomonas aeruginosa; conditions: PAM1020
Excerpt: (§1) In addition to increased efflux, resistance to fluoroquinolones may be due to target mutations (gyrase and topoisimerase IV) or due to combination of these two resistance mechanisms in a single bacterial cell.

[4] = tested on: P. aeruginosa PAM1032 (MexAB-OprM); assay: microbe, parasite or virus in culture; type: cell-based, Pseudomonas aeruginosa; conditions: PAM1032
Excerpt: as §1

[5] = tested on: P. aeruginosa PAM1033 (MexCD-OprJ); assay: microbe, parasite or virus in culture; type: cell-based, Pseudomonas aeruginosa; conditions: PAM1033
Excerpt: as §1

[6] = tested on: P. aeruginosa PAM1034 (MexEF-OprN); assay: microbe, parasite or virus in culture; type: cell-based, Pseudomonas aeruginosa; conditions: PAM1034
Excerpt: as §1

[7] = tested on: P. aeruginosa PAM1482 (MexCD-OprJ; gyrA (Asp87Tyr)); assay: microbe, parasite or virus in culture; type: cell-based, Pseudomonas aeruginosa; conditions: PAM1482
Excerpt: as §1

[8] = tested on: P. aeruginosa PAM1491 (MexEF-OprN; gyrA (Asp87Tyr)); assay: microbe, parasite or virus in culture; type: cell-based, Pseudomonas aeruginosa; conditions: PAM1491
Excerpt: as §1

[9] = tested on: P. aeruginosa PAM1548 (pump status none; gyrA (Thr83Ile)); assay: microbe, parasite or virus in culture; type: cell-based, Pseudomonas aeruginosa; conditions: PAM1548
Excerpt: as §1

[10] = tested on: P. aeruginosa PAM1569 (MexCD-OprJ; gyrA (Thr83Ile)); assay: microbe, parasite or virus in culture; type: cell-based, Pseudomonas aeruginosa; conditions: PAM1569
Excerpt: as §1

[11] = tested on: P. aeruginosa PAM1570 (MexEF-OprN; gyrA (Thr83Ile)); assay: microbe, parasite or virus in culture; type: cell-based, Pseudomonas aeruginosa; conditions: PAM1570
Excerpt: as §1

[12] = tested on: P. aeruginosa PAM1438 (MexAB-OprM, MexCD-OprJ); assay: microbe, parasite or virus in culture; type: cell-based, Pseudomonas aeruginosa; conditions: PAM1438
Procedure: (§2) A set of strains that simultaneously over-expressed pairs or triplicates of pumps, e.g. PAM2302 and PAM2303 was tested. Simultaneous over-expression of efflux pumps has been recently detected in clinical strains.

[13] = tested on: P. aeruginosa PAM2281 (MexAB-OprM, MexEF-OprN); assay: microbe, parasite or virus in culture; type: cell-based, Pseudomonas aeruginosa; conditions: PAM2281
Procedure: as §2

[14] = tested on: P. aeruginosa PAM2282 (MexAB-OprM, MexEF-OprN); assay: microbe, parasite or virus in culture; type: cell-based, Pseudomonas aeruginosa; conditions: PAM2282
Procedure: as §2

[15] = tested on: P. aeruginosa PAM2302 (MexAB-OprM, MexCD-OprJ, MexEF-OprN); assay: microbe, parasite or virus in culture; type: cell-based, Pseudomonas aeruginosa; conditions: PAM2302
Procedure: as §2

[16] = tested on: P. aeruginosa PAM2466 (MexAB-OprM, MexXY-OprM); assay: microbe, parasite or virus in culture; type: cell-based, Pseudomonas aeruginosa; conditions: PAM2466
Procedure: as §2

[17] = tested on: Pneumocystis carini; conditions: cited from earlier work
[18] = cited from earlier work
[19] = isethionate salt; cited from earlier work
[20] = tested on: PAM1626 cells (lacking the efflux pump); assay: Leu-Nap accumulation assay; conditions: Leu-Nap 100 μg/ml, pentamidine 0 to 80 μg/ml
Procedure: Leu-Nap, which is not fluorescent in solution, is cleaved enzymatically inside the cells to produce highly fluorescent β-naphthylamine. The more Leu-Nap enters cells, the more fluorescence is produced. The rate of production of β-naphthylamine (recorded as an increase in fluorescence) is limited by the rate of entry of Leu-Nap into the cell. To assess the uptake of Leu-Nap, cultures of P. aeruginosa were grown to OD600 ˜1, washed and re-suspended in buffer at pH 7.0 containing K2HPO4 50 mM, MgSO4 1 mM, and Glucose 0.4% (Buffer A). Assays were performed in 96-well flat bottom black plates (Applied Scientific or Costar) in a final volume of 200 μl and were initiated by addition of Leu-Nap to suspensions of intact cells to a final concentration of 100-20 μg/ml. Fluorescence was measured on a fMAX spectrofluorometer (Molecular Devices) using excitation of 320 nm and emission of 460 nm.

[21] = 24 hours after 300 mg in a jet nebulizer

## N=C(N)c1ccc(OCCCCCOc2ccc(C(=N)N)cc2)cc1 [Pentamidine, pentamidine]
[1]; PAM1723, inhibitor 1.25 μg/ml
  Levofloxacin MIC in the presence of inhibitor: 2 µg/mL
[1]; PAM1723, inhibitor 2.5 μg/ml
  Levofloxacin MIC in the presence of inhibitor: 1 µg/mL
[1]; PAM1723, inhibitor 5 μg/ml
  Levofloxacin MIC in the presence of inhibitor: 1 µg/mL
[1]; PAM1723, inhibitor 10 μg/ml
  Levofloxacin MIC in the presence of inhibitor: 0.5 µg/mL
[1]; PAM1723, inhibitor 10 μg/ml, listed as Pentamidine MP 601205
  Levofloxacin MIC in the presence of inhibitor: 1 µg/mL
[1]; PAM1723, inhibitor 20 μg/ml
  Levofloxacin MIC in the presence of inhibitor: 0.25 µg/mL
[1]; PAM1723, inhibitor 40 μg/ml
  Levofloxacin MIC in the presence of inhibitor: 0.06 µg/mL
[1]; PAM1723, inhibitor 80 μg/ml
  Levofloxacin MIC in the presence of inhibitor: 0.007 µg/mL
[1]; PAM1723, inhibitor alone, listed as Pentamidine MP 601205
  MIC* (MIC for the efflux pump inhibitor): >81 µg/mL
[1]; PAM1723, pentamidine at 20 μg/ml
  decrease of levofloxacin MIC: 8 fold
[1]; Pseudomonas aeruginosa, read-out: MIC* (MIC for the efflux pump inhibitor), PAM1723, inhibitor alone
  MIC: > 80 µg/mL
[1]; inhibitor at 10 μg/ml to 20 μg/ml
  reduction of the levofloxacin MIC of PAM1723 (2 μg/ml): at least 8 fold
[2]; inhibitor 1.25 μg/ml
  Levofloxacin MIC in the presence of inhibitor: 0.007 µg/mL
[2]; inhibitor 2.5 μg/ml
  Levofloxacin MIC in the presence of inhibitor: 0.007 µg/mL
[2]; inhibitor 5 μg/ml
  Levofloxacin MIC in the presence of inhibitor: 0.007 µg/mL
[2]; PAM1626 lacking efflux pumps
  decrease in levofloxacin MIC: Almost no decrease
[2]; Pseudomonas aeruginosa, read-out: MIC* (MIC for the efflux pump inhibitor)
  MIC: 10 µg/mL (≈ 29.4 µM)
[3]
  Ciprofloxacin MIC w/pentamidine at 20 μg/ml: 0.015 µg/mL
  Levofloxacin MIC w/pentamidine at 20 μg/ml: 0.03 µg/mL
[4]
  Ciprofloxacin MIC w/pentamidine at 20 μg/ml: 0.06 µg/mL
  Levofloxacin MIC w/pentamidine at 20 μg/ml: 0.125 µg/mL
[5]
  Ciprofloxacin MIC w/pentamidine at 20 μg/ml: 0.25 µg/mL
  Levofloxacin MIC w/pentamidine at 20 μg/ml: 0.25 µg/mL
[6]
  Ciprofloxacin MIC w/pentamidine at 20 μg/ml: 0.06 µg/mL
  Levofloxacin MIC w/pentamidine at 20 μg/ml: 0.125 µg/mL
[7]
  Ciprofloxacin MIC w/pentamidine at 20 μg/ml: 2 µg/mL
  Levofloxacin MIC w/pentamidine at 20 μg/ml: 1 µg/mL
[8]
  Ciprofloxacin MIC w/pentamidine at 20 μg/ml: 1 µg/mL
  Levofloxacin MIC w/pentamidine at 20 μg/ml: 2 µg/mL
[9]
  Ciprofloxacin MIC w/pentamidine at 20 μg/ml: 0.5 µg/mL
  Levofloxacin MIC w/pentamidine at 20 μg/ml: 0.25 µg/mL
[10]
  Ciprofloxacin MIC w/pentamidine at 20 μg/ml: 4 µg/mL
  Levofloxacin MIC w/pentamidine at 20 μg/ml: 4 µg/mL
[11]
  Ciprofloxacin MIC w/pentamidine at 20 μg/ml: 2 µg/mL
  Levofloxacin MIC w/pentamidine at 20 μg/ml: 2 µg/mL
[12]
  Ciprofloxacin MIC w/pentamidine at 20 μg/ml: 0.25 µg/mL
  Levofloxacin MIC w/pentamidine at 20 μg/ml: 0.25 µg/mL
[13]
  Ciprofloxacin MIC w/pentamidine at 20 μg/ml: 0.25 µg/mL
  Levofloxacin MIC w/pentamidine at 20 μg/ml: 0.25 µg/mL
[14]
  Ciprofloxacin MIC w/pentamidine at 20 μg/ml: 0.125 µg/mL
  Levofloxacin MIC w/pentamidine at 20 μg/ml: 0.25 µg/mL
[15]
  Ciprofloxacin MIC w/pentamidine at 20 μg/ml: 0.25 µg/mL
  Levofloxacin MIC w/pentamidine at 20 μg/ml: 0.25 µg/mL
[16]
  Ciprofloxacin MIC w/pentamidine at 20 μg/ml: 0.06 µg/mL
  Levofloxacin MIC w/pentamidine at 20 μg/ml: 0.125 µg/mL
[17]
  In vitro inhibitory activity: 0.3 µg/mL
[18]; [21]
  concentration in bronchial alveolar lavage fluid sediment: 705 ± 242 ng/mL
  concentration in bronchial alveolar lavage fluid supernatant: 23.2 ± 7.75 ng/mL
[18]; after 3 weeks of daily administration of 3 mg/kg
  trough plasma concentration: 61.1 ± 56.0 ng/mL
[19]
  solubility: soluble in water and glycerin and insoluble in ether, acetone, and chloroform
[20]
  effect on Leu-Nap uptake: No such increase
